According to paper PMC8304608, “Impact of Membrane Lipids on UapA and AzgA Transporter Subcellular Localization and Activity in Aspergillus nidulans” (Journal of Fungi, 2021):

Tests used:
UapA = target: T1, UapA (Aspergillus nidulans, UniProt Q07307); assay: radiolabelled uptake in germinating conidiospores; assay type: cell-based; details: apparent Km; wild-type lipid background; [8-3H]-xanthine 0.1 μM with unlabelled substrate 0.5-1000 μM; pH 6.8, 37 °C; labelled compound; background of strain lacking transporter subtracted; read-out: Xanthine Uptake Kinetics / Km
T1 construct: full-length in native germinating conidiospores; GFP-tagged UapA under native promoter used for localization (functionally replaces untagged); homodimer
T1 sequence (Q07307 whole entry): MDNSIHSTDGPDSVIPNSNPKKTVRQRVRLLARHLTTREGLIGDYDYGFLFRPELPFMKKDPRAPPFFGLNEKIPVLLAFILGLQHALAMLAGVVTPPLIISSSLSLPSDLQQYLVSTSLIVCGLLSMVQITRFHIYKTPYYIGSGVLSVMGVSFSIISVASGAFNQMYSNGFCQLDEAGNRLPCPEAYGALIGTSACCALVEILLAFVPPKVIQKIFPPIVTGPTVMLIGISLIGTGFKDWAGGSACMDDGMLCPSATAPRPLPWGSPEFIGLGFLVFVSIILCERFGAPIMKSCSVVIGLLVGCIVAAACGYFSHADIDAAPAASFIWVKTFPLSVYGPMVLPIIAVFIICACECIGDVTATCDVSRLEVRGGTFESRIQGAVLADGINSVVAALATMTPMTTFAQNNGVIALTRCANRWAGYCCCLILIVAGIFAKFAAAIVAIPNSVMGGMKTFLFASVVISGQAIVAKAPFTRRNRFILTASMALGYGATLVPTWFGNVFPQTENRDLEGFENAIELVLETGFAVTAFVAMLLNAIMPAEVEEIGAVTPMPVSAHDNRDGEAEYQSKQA
Description: radiolabelled uptake in germinating conidiospores on UapA

[1] = substrate: Nc1ncnc2nc[nH]c12; assay: radiolabelled uptake in germinating conidiospores; assay type: cell-based, Aspergillus nidulans; details: apparent Km, wild-type lipid background, [2,8-3H]-adenine 0.1 μM with unlabelled substrate 0.5-1000 μM, pH 6.8, 37 °C, labelled compound, background of strain lacking transporter subtracted
Description: radiolabelled uptake in germinating conidiospores on AzgA

| Km (UapA) | Molecule | Km [1] |
| --- | --- | --- |
| 5 ± 1 µM | O=c1[nH]c(=O)c2[nH]cnc2[nH]1 [xanthine] |  |
|  | AzgA (Aspergillus nidulans) (protein, full-length in native germinating conidiospores; GFP-tagged AzgA under native promoter used for localization (functionally replaces untagged)) MGYAEWIGRTNAAVARSPVGRWFRLEGSGHPRERKGAYFFTELRAGLATFFAMAYIISVNANITSDTGGTCVCPAEDLATACDNNTEYLLCKQEVNRDLVTATAAIAAIASFFLGLLANLPVALAPGMGLNAYFAYTVVGHHGTGLIPYSLAVTAVFVEGWIFLGLTLLGIRQWLARAIPASIKLATGAGIGLYLTLIGLSYSAGLGVVQGGTSSPIQLAGCASDTFGDDGLCPSSEKMRNPTMWIGIFCGGVFTVFLMMYRVKGAVIAGILLVSIISWPRPTPVTYFPHTETGDSSFDFFKKVVTFHPIQHTLVAQEWNISSNGGQFGLALITFLYVDILDATGTLYSMAKFAGAMDERTQDFEGSAMAYMVDAICISIGSLFGSPPVTAFVESGAGISEGGKTGLTSCMTGICFFIAVFFAPIFASIPPWATGSTLVIVGSMMMHATLEINWRYLGDAVPAFLTISLMPFTYSIADGLIAGILSYILINGGVWIVAKLTGGRISPPNREEEHEPWTWKIPGGFFPPWLVRAVHGKKDFWRAEDDANDLSLGVMPHGSLSSQDRAGEKLASSKEQVTEK | 3 ± 1 µM |
